Measurements from article PMC3702509, “Label Free Fragment Screening Using Surface Plasmon Resonance as a Tool for Fragment Finding – Analyzing Parkin, a Difficult CNS Target” (PLoS ONE, 2013).

Assays:
[1] = biological target: T1, FL-FLAG-Parkin 56°C (thermal treated) (Homo sapiens, UniProt O60260); experiment: SPR kinetics/affinity on thermal treated FL-FLAG Parkin captured by anti-FLAG antibody; format: binding
T1 construct: the entire coding region (residues 1–465) from NM_004562.1 was cloned into pFastBac; made in house; host or cells: Sf9 or Sf21 insect cells (baculovirus)
T1 sequence (O60260 1-465): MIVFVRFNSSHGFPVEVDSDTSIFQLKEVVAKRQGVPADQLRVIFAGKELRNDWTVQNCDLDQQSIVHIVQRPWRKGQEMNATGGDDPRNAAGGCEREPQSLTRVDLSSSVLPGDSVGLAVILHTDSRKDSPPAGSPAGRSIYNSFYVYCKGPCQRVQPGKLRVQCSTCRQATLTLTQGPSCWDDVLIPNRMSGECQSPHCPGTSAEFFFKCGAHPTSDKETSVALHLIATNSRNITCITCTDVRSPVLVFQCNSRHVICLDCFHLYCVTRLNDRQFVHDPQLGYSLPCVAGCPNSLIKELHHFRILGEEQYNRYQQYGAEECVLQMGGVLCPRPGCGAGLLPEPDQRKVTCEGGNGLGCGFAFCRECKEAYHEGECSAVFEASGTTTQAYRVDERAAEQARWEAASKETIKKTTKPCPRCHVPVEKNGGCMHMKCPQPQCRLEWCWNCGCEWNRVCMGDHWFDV
Method: Kinetics and Affinity measurements were performed on a GE Healthcare Biacore T100 or T200 instrument. Anti-FLAG antibody M2 was immobilized on a CM5 sensor chip using standard amine coupling procedure at a concentration of 100 μg/ml to a level of 10000 response units (RU). […] The running buffer for both methods was 10 mM HEPES pH 7.4, 150 mM NaCl, 0.005% Tween-20, 4 mM reducing agent. […] Flow cell 2 contained antibody only to control for non-specific binding of fragments to the antibody, and flow cells 3 and 4 contained antibody and captured Parkin. Untagged Parkin domain R0RBR was immobilized by amine coupling at a concentration of 100 μg/ml in 10 mM acetic acid pH 5.0 using the same running buffer as for anti-FLAG antibody immobilization. The surface was then washed with 10 mM HEPES pH 7.4, 150 mM NaCl, 0.005% Tween-20, 4 mM reducing agent for at least one hour.
(§1) The flow rate was 30μl/min. The time-dependent binding curves were monitored simultaneously. The surfaces were then regenerated after each binding experiment by washing the surfaces with an injection of running buffer. Kinetics and affinity experiments were repeated at least twice at two different test occasions.
Kinetic and affinity data were solvent corrected (fragments only), reference subtracted and blank subtracted using the Biacore T200 evaluation software V.1. Kinetic constants were determined by curve fitting using a 1∶1 binding model. Association and dissociation curves were fitted globally or locally. The rate of complex formation (1∶1 interaction) during fragment injection was calculated according to the equation (2): [drawing 2] […] The dissociation phase kd was measured using the rate of decline in RU after the injection stop, when free running buffer is flowing over the surface. Data were simultaneously fitted by the software and the dissociation constant KD calculated using equation (3). […] (3) Ligand efficiency (LE, Δg) was calculated as the binding energy of ligand per atom (equation 4) [drawing 4] […]
The dissociation half-life (t1/2) was calculated by equation (5). […]

FL-FLAG Parkin [2] = biological target: T2, FL-FLAG Parkin (Homo sapiens, UniProt O60260); experiment: STD NMR binding to FL-FLAG-Parkin; conditions: 4 µM FL Parkin, 0.5 mM DTT, 0.25 mM compound Z, signal at 2.6 ppm
T2 construct: the entire coding region (residues 1–465) from NM_004562.1 was cloned into pFastBac; made in house; host or cells: Sf9 or Sf21 insect cells (baculovirus)
T2 sequence (O60260 1-465): T1 sequence (O60260 1-465)
Method: All NMR experiments were conducted at 15°C on a Bruker Avance 700 MHz spectrometer equipped with a 5 mm TCI cryo-probe. 3 mm NMR tubes were used for reducing the protein consumption. […] The compound concentration was 0.25 mM. […] The Mnova 7.0 (Mestrelab Research) was used in data analysis.

[3] = biological target: T3, FL-FLAG-Parkin RT (non-thermal treated) (Homo sapiens, UniProt O60260); experiment: SPR kinetics/affinity on non-thermal treated FL-FLAG Parkin captured by anti-FLAG antibody; format: binding; conditions: for direct binding of reducing agent by SPR: non-thermal treated Parkin
T3 construct: the entire coding region (residues 1–465) from NM_004562.1 was cloned into pFastBac; made in house; host or cells: Sf9 or Sf21 insect cells (baculovirus)
T3 sequence (O60260 1-465): T1 sequence (O60260 1-465)
Method: Kinetics and Affinity measurements were performed on a GE Healthcare Biacore T100 or T200 instrument. Anti-FLAG antibody M2 was immobilized on a CM5 sensor chip using standard amine coupling procedure at a concentration of 100 μg/ml to a level of 10000 response units (RU). […] Flow cell 2 contained antibody only to control for non-specific binding of fragments to the antibody, and flow cells 3 and 4 contained antibody and captured Parkin. Untagged Parkin domain R0RBR was immobilized by amine coupling at a concentration of 100 μg/ml in 10 mM acetic acid pH 5.0 using the same running buffer as for anti-FLAG antibody immobilization. […]
as §1
Kinetic and affinity data were solvent corrected (fragments only), reference subtracted and blank subtracted using the Biacore T200 evaluation software V.1. Kinetic constants were determined by curve fitting using a 1∶1 binding model. Association and dissociation curves were fitted globally or locally. The rate of complex formation (1∶1 interaction) during fragment injection was calculated according to the equation (2): [drawing 2] (2) where R is the SPR signal in response units (RU), C is the concentration of analyte, Rmax is the maximum analyte binding capacity in RU, dR/dt is the rate of SPR signal change. To determine the association constant ka between fragment and protein, the early binding phase was used. The dissociation phase kd was measured using the rate of decline in RU after the injection stop, when free running buffer is flowing over the surface. Data were simultaneously fitted by the software and the dissociation constant KD calculated using equation (3). [drawing 3] (3) Ligand efficiency (LE, Δg) was calculated as the binding energy of ligand per atom (equation 4) [drawing 4] (4) where Nh is the number of heavy (i.e., non-hydrogen) atoms in the ligand.
The dissociation half-life (t1/2) was calculated by equation (5). [drawing 5] (5)

FL-FLAG Parkin [4] = biological target: T2, FL-FLAG Parkin; experiment: S5a ubiquitination HTRF (TR-FRET) assay; format: biochemical; conditions: Parkin heated at 56°C in presence of reducing agent; DTT at optimal 5–10 mM
Method: FL FLAG-Parkin (35 μM stock) was thermally treated by incubating at 56°C for 30 min. The thermally treated FL FLAG-Parkin stock was stored at −80 C. 5 μl of thermally treated or non-treated FLAG-Parkin diluted in assay buffer was added to wells of a 384-well non-binding plate. […] The reaction was allowed to proceed for 120 min at 30°C. 10 μl of stop-detection mix was added to a final concentration of 75 nM streptavidin XL665 conjugate, 12 mM EDTA in buffer containing 100 mM Na2HPO4 pH 7.0, 300 mM KF, and 0.1% BSA. The 20 μl reaction mixture was incubated for 60 min at room temperature. HTRF read using a LJL Analyst plate reader (Molecular Devices) at excitation 320 nm and emission 665 nm & 615 nm.

R0RBR Domain RT = biological target: T4, R0RBR Domain RT (Homo sapiens, UniProt O60260); experiment: SPR kinetics/affinity on amine-coupled Parkin R0RBR domain; format: binding; conditions: read-out: Affinities KD of protein ligands
T4 construct: DNA encoding residues 141–465 of Parkin (NM_004562.1) were cloned into the Champion pET SUMO vector; SUMO (His-SUMO of the Champion pET SUMO vector) (N, cleaved yes); made in house; host or cells: E. coli BL21 DE3
T4 sequence (O60260 141-465): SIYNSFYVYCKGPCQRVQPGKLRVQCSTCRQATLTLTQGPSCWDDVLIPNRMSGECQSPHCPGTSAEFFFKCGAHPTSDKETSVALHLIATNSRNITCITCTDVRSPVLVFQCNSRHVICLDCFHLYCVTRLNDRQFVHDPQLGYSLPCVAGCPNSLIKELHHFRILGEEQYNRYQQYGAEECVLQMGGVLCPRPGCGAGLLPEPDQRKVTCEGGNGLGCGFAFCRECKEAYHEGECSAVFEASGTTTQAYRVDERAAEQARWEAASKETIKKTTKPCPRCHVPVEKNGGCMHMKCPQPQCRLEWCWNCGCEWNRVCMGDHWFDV
Method: Kinetics and Affinity measurements were performed on a GE Healthcare Biacore T100 or T200 instrument. Anti-FLAG antibody M2 was immobilized on a CM5 sensor chip using standard amine coupling procedure at a concentration of 100 μg/ml to a level of 10000 response units (RU). Monomeric non-thermal treated FL-Parkin or thermal treated FL-Parkin was captured in 10 mM acetic acid pH 4.5 to levels of up to 16000 RU. The running buffer for both methods was 10 mM HEPES pH 7.4, 150 mM NaCl, 0.005% Tween-20, 4 mM reducing agent. Typically, the 4 flow cells of the sensor chips were used as follows: flow cell 1 served as a reference and was activated and deactivated. […]
To test binding of reducing agents in the absence of small molecules, the reducing agents were diluted and injected in buffer without reducing agents for 180 sec and a dissociation phase of 600 sec. […] The time-dependent binding curves were monitored simultaneously. […]
Kinetic and affinity data were solvent corrected (fragments only), reference subtracted and blank subtracted using the Biacore T200 evaluation software V.1. Kinetic constants were determined by curve fitting using a 1∶1 binding model. […] The rate of complex formation (1∶1 interaction) during fragment injection was calculated according to the equation (2): [drawing 2] […] Data were simultaneously fitted by the software and the dissociation constant KD calculated using equation (3). […]

[5] = SPR, 50 mM HEPES pH 8.8, 0.005% Tween-20, 0.01% PF-127, no other reducing agent

Compound	direct binding of reducing agent by SPR [1]	DTT binding in STD spectrum (FL-FLAG Parkin [2])	Kd [3, 5]	affinity (KD) of reducing agent [3, 5]	Rmax ([3]; SPR, same run as the KD of DTT)	binding activity % Rmax ([3]; SPR, same run as the KD of DTT)	dissociation half-life ([3]; calculated from the dissociation rate kd)	direct binding of reducing agent by SPR [3]	improvement of Parkin S5a ubiquitination activity (FL-FLAG Parkin [4])	Kd (R0RBR Domain RT)	dissociation at a fast rate (kd), time ([3]; SPR, protein ligand)
O[C@@H](CS)[C@@H](O)CS (racemic) [DTT, Dithiothreitol]	showed binding	binding was evident	1.4 µM	low micro-molar affinity	34 RU	47 % Rmax	28.95 min	showed binding	–	–	–
OCCS [BME, β-mercaptoethanol]	did not exhibit any binding	–	–	–	–	–	–	did not exhibit any binding	up to 2.5 fold	–	–
O=C(O)CCP(CCC(=O)O)CCC(=O)O [TCEP]	did not exhibit any binding	–	–	–	–	–	–	did not exhibit any binding	up to 2.5 fold	–	–
UbcH7: Ubiquitin conjugating enzyme E2, non-tagged, purified in house	–	–	–	–	–	–	–	–	–	7.1 µM	30 s
